Source: patent publication US20060073541A1, “Lipophilic dyes and their application for detection of myelin” (priority 2004, published 2006)

Experiments:
[1] = system: myelin; test: Detection of myelin in combination with antibodies (anti-GFAP) and DAPI on mouse brain cryosection
Experimental: To test whether use of Compound 1 interrupts antibody binding, Compound 1 was used in conjunction with anti-GFAP on mouse brain sections. A 16 μm mouse brain cryosection, cross-section through the rostral mesencephalon, was rehydrated and permeabilized in PBT (0.05 M phosphate buffered saline with 0.2% Triton X-100 and 0.2% BSA) for 20 minutes, the washed for 30 minutes with Image-iT FX Signal Enhancer (Molecular Probes, Inc.) to block non-specific Alexa Fluor dye binding to myelin. After washing in PBT, the section was blocked for 1 hour in 5% normal goat serum/0.2% Triton X-100/3% BSA, then incubated overnight at 4° C. in 5 μg/ml mouse anti-GFAP (glial fibrillary acidic protein) from Molecular Probes (A21282) in blocking buffer. Sections were washed well in PBT, then incubated in Alexa Fluor 680 goat anti-mouse secondary antibody (A21057, Molecular Probes, Inc.) for 2 hours. After washing in PBT, sections were labeled in 500 nM of Compound 1 for 20 minutes with 0.1 μg/ml DAPI. After a final wash in PBT, sections were mounted in Prolong antifade mountant (Molecular Probes, inc.). Images were collected on a Nikon E800 epifluorescence upright microscope using a Princeton MicroMax cooled CCD digital camera, MetaMorph acquisition software, and Adobe Photoshop image analysis software.

[2] = system: myelin; test: Myelin staining in combination with NeuroTrace Nissl stains and DAPI on mouse brain cryosections; conditions: 500 nM dye, NeuroTrace Nissl stain 1:300, DAPI
Experimental: (§1) A 16 μm mouse brain cryosection, cross section through diencephalon, was rehydrated for 20 minutes in PBT (0.5 M phosphate-buffered saline containing 0.2% Triton X-100 and 0.2% BSA). The three dyes were mixed into the final stain solution (in PBS), such that there was a concentration of 500 nM of Compound 1, 1:300 dilution of NeuroTrace Red Nissl Stain, and 0.1 μg/ml DAPI. Sections were labeled in this combination for 20 minutes, then washed well in PBT prior to mounting in Prolong antifade mounting medium (Molecular Probes, Inc.). Images were collected on a Nikon E800 epifluorescence upright microscope using a Princeton MicroMax cooled CCD digital camera, MetaMorph acquisition software, and Adobe Photoshop image analysis software.
as §1, with “(0.5M” for “(0.5 M”, “nM” for “nM of”, “2,” for “1,”
12 μm thick mouse brain cryosections, either cross-sectioned through the mesencephalon or sagittal sections, were rehydrated and permeabilized for 20 minutes in PBT (PBS with 0.2% Triton X-100 and 0.2% BSA) then labeled 30 minutes with 500 nM Compound 4 in PBS. Sections were washed 3×10 minutes with PBT then labeled 20 minutes with NeuroTrace Green Nissl Stain (diluted 1:300 from stock). Sections were washed 3×5 minutes in PBS, labeled 1.5 minutes with 0.2 μg/mL DAPI, washed 3×5 minutes in PBS again, and mounted in Prolong Gold antifade mounting medium. Samples were compared to sections labeled with Compound 1 and Compound 2 as controls. Images were collected on a Nikon E800 epifluorescence upright microscope using a Princeton MicroMax cooled CCD digital camera, MetaMorph acquisition software, and Adobe Photoshop image analysis software.

[3] = system: myelin; test: Myelin staining of mouse brain cryosections, label pattern comparison; conditions: for labeling of myelin (selectivity): 1 μM or 500 nM in PBS; for myelin label pattern / non-specific background labeling / single axon labeling: 16 μm mouse brain cryosections, dyes 500 nM 20 minutes; for myelin label pattern: sagittal and cross sections, anti-MBP 5 μg/ml overnight; for emission wavelength (Em) / excitation wavelength (Ex): dye on labeled mouse brain cryosections
Experimental: In an exemplary embodiment, the present method stains and detects myelin in brain tissue sections that have been immobilized on a glass slide. In this instance a protocol for labeling brain cryosections comprises: • 1. Rehydrate and/or Permeabilize. Bring tissue sections on slides to room temperature, then rehydrate in either PBS (phosphate-buffered saline, 0.05M, pH 7.4) or PBT (PBS+0.2% Triton X-100) for at least 20 minutes. Permeabilization with Triton X-100 is not necessary for labeling using the present lipophilic dyes, but is likely necessary for any other counterstains or antibodies to be used. • 2. Prepare Label Solution. Prepare the labeling solution by diluting the stock solution 300-fold with PBS to make a final recommended concentration of 500 nM dye. • 3. Label Step. Flood the section with labeling solution and stain for 20 minutes at room temperature. • 4. Wash. When labeling is complete, remove solution, rinse in PBS, and wash 3×10 minutes with PBS. • 5. Counterstaining and Mounting. At this point tissues can be counterstained as necessary, or mounted with an aqueous antifade mounting medium such as ProLong or ProLong Gold reagent.
Use of this antibody allows for specific labeling with which to compare the present lipophilic dyes and chromogenic method label patterns. […] Tissue was sectioned on a cryostat and mounted on Plus slides and stored at −80° C. Upon use, tissue sections were brought to room temperature and rehydrated in PBT (0.5 M phosphate-buffered saline containing 0.2% Triton X-100 and 0.2% BSA) for 30 minutes. Sections were blocked for 1 hour in 5% normal goat serum/3% BSA/PBT, then labeled overnight at 4° using 5 μg/ml rat anti-MBP primary antibody from Chemicon (MAB386). After washing in PBT, tissues were washed in Image-iT FX signal enhancer (136933, Molecular Probes, Inc., Eugene, Oreg.) for 30 minutes, then washed again in PBT. Sections were incubated in Alexa Fluor 488 goat anti-rat secondary antibody (A11006, Molecular Probes, Inc.) for 2 hours, washed in PBT, and mounted in ProLong antifade solution (P7481, Molecular Probes, Inc.). Images were collected on a Nikon E800 epifluorescence upright microscope using a Princeton MicroMax cooled CCD digital camera, MetaMorph acquisition software, and Adobe Photoshop image analysis software (Ex 495/Em 519, FITC Filter Set).
Other than antibody labeling techniques, myelin labeling is traditionally performed using long and complicated chromogenic (non-fluorescent) dye protocols. One of the most common is the Loyez Technique. A more recent, and more specific method is Schmued's Gold Chloride Technique. These two methods were used for comparison to the present dyes. • I. Schmued's Gold Chloride Technique. Based on a method by Laurence C. Schmued [1990. A rapid, sensitive histochemical stain for myelin in frozen brain sections. J. Histochem Cytochem. 38(5): 717-720]. Tissues were rehydrated in PBT for 30 minutes, then labeled for 3.5 hours in 0.2% gold chloride in 0.02 M neutral phosphate buffer with 0.9% sodium chloride. After a water rinse, tissues were post-fixed for 5 minutes in 2.5% sodium thiosulfate, rinsed in running tap water for 30 minutes, and mounted in mowiol. Images were collected using transmitted light on the system outlined in part A of this example. Myelin was labeled a brown-red color. […] Loyez Technique. Adapted from H. C. Cook. 1974. […] London: Butterworths. pp. 161-162. Tissues were rehydrated and permeabilized 30 minutes in PBT, then treated with 4% iron alum overnight at room temperature. After a water wash, tissues were stained overnight in a 10% alcoholic haematoxylin solution with lithium carbonate at room temperature. After two 10-minute water washes, tissues were destained for approximately 20 seconds in 4% iron alum, and washed in water. After a final wash in borax-ferricyanide to colorize the myelin blue-black, tissues were washed in water and mounted in mowiol. Images were scanned as in section B. I. Of this example. […]

[4] = system: myelin; test: Demyelinated mouse model test: control versus shiverer mouse brain cryosections
Experimental: To illustrate the use of the present dyes for studying myelin diseases such as multiple sclerosis, adrenoleukodystrophy, Guillain-Barre syndrome, and others, Compound 1 was compared against rat anti-myelin basic protein (anti-MBP) primary antibody on control mouse brains versus shiverer mouse brain. […] Brain tissues were cryosectioned at 16 μm and mounted on PLUS slides. Control and shiverer tissues were treated either with anti-MBP primary and Alexa Fluor 488 goat anti-rat secondary or Compound 1. Tissues treated with the antibody were rehydrated and permeabilized in PBT (0.05 M phosphate buffered saline with 0.2% Triton X-100 and 0.2% bovine serum albumin (BSA)) for 20 minutes, then blocked in 5% normal goat serum/3% BSA/PBT for 1 hour. Tissues were then incubated overnight at 4° C. with 5 μg/mL rat anti-MBP (Chemicon, MAB386) in blocking solution. After washing 3×10 minutes in PBT, they were then incubated for 2 hours with 5 μg/mL Alexa Fluor 488 goat anti-rat secondary at room temperature. After further washing 3×10 minutes in PBT, tissues were counterstained with 0.2 μg/ml DAPI, washed 3×5 minutes in PBT, and mounted with ProLong antifade mounting medium (Invitrogen P36930). Tissues that were labeled with Compound 1 were rehydrated and permeabilized as above, then labeled 20 minutes with 500 nM Compound 1 and 0.2 μg/mL DAPI (together) in PBT. Tissues were washed 3×10 minutes PBT, then mounted as above. Images were collected on a Nikon E800 epifluorescence upright microscope using a Princeton MicroMax cooled CCD digital camera, an Omega XF100-2 FITC filter set, MetaMorph acquisition software, and Adobe Photoshop image analysis software. […] Myelin labeling was negative, as expected, for shiverer mice for both anti-MBP and Compound 1, illustrating that the present dyes work as well as anti-MBP for demyelination determination.

emission wavelength (Em) [3] [nm]	excitation wavelength (Ex) [3] [nm]	spectral qualities ([3]; 12 μm mouse brain cryosections)	Structure (SMILES)	label pattern in conjunction with anti-GFAP ([1]; 500 nM 20 minutes with 0.1 μg/ml DAPI after anti-GFAP / Alexa Fluor 680 secondary, rostral mesencephalon cross-section)	inhibition of staining pattern ([1]; 500 nM dye with anti-GFAP antibody labeling)	disruption of labels / compatibility with NeuroTrace Nissl stain and DAPI [2]	label pattern in combination with NeuroTrace Nissl stain and DAPI [2]	labeling of myelin (selectivity) ([3]; 12 μm mouse brain cryosections)	myelin label pattern [3]	non-specific background labeling [3]	single axon labeling [3]	staining brightness compared with anti-MBP ([4]; control mice brain)	myelin labeling in control mice ([4]; control mice brain, 16 μm cryosections, 500 nM dye 20 minutes or 5 μg/mL anti-MBP overnight)	background labeling ([4]; general membrane labeling)	myelin labeling in shiverer mice ([4]; shiverer (demyelinated) mouse brain, 16 μm cryosections)	concentration sufficient for labeling with minimal background ([3]; 12 μm mouse brain cryosections, in PBS) [nM]
594	479		CCCCN(CCCC)c1ccc(C=Cc2cc[n+](CCC[N+](CC)(CC)CC)cc2)cc1 [Compound 1]	labeled axon tracts and bundles	no inhibition of staining pattern by either label	no evidence of disruption of any of the three labels	tracts in the fornix, fornix superior, capsula interna, and striatum	selective myelin labeling	specific myelin labeling in expected axon bundles and tracts	some non-specific background labeling was visualized	single axon labeling was not seen	twice as bright	labeled myelin in control mice	slight background labeling	negative	
734	558		CCCCN(CCCC)c1ccc(C=CC=CC=Cc2cc[n+](CCC[N+](CC)(CC)CC)cc2)cc1 [Compound 2]			no evidence of disruption of any of the three labels	tracts in the fornix, fornix superior, capsula interna, and striatum	selective myelin labeling	specific myelin labeling in expected axon bundles and tracts	some non-specific background labeling was visualized	single axon labeling was not seen					
		comparable to Compound 2	CCCCN(CCCC)c1ccc(C=CC=CC=Cc2cc[n+](CCC[N+](C)(C)C)cc2)cc1 [Compound 4]			compatible with NeuroTrace Green Nissl Stain labeling and DAPI labeling	label pattern comparable to the control dyes	highly selective labeling of myelin								500
